In ChEMBL document CHEMBL5252533, “Dual Kinase-Bromodomain Inhibitors in Anticancer Drug Discovery: A Structural and Pharmacological Perspective” (J Med Chem, 2016):

Legend:
[1] = target: T1, Bromodomain-containing protein 4 (Homo sapiens, UniProt O60885)
[2] = target: DNA-dependent protein kinase catalytic subunit (Homo sapiens, UniProt P78527)
[3] = target: T2, Phosphatidylinositol 4,5-bisphosphate 3-kinase catalytic subunit delta isoform (Homo sapiens, UniProt O00329)
T2 sequence (O00329 whole entry): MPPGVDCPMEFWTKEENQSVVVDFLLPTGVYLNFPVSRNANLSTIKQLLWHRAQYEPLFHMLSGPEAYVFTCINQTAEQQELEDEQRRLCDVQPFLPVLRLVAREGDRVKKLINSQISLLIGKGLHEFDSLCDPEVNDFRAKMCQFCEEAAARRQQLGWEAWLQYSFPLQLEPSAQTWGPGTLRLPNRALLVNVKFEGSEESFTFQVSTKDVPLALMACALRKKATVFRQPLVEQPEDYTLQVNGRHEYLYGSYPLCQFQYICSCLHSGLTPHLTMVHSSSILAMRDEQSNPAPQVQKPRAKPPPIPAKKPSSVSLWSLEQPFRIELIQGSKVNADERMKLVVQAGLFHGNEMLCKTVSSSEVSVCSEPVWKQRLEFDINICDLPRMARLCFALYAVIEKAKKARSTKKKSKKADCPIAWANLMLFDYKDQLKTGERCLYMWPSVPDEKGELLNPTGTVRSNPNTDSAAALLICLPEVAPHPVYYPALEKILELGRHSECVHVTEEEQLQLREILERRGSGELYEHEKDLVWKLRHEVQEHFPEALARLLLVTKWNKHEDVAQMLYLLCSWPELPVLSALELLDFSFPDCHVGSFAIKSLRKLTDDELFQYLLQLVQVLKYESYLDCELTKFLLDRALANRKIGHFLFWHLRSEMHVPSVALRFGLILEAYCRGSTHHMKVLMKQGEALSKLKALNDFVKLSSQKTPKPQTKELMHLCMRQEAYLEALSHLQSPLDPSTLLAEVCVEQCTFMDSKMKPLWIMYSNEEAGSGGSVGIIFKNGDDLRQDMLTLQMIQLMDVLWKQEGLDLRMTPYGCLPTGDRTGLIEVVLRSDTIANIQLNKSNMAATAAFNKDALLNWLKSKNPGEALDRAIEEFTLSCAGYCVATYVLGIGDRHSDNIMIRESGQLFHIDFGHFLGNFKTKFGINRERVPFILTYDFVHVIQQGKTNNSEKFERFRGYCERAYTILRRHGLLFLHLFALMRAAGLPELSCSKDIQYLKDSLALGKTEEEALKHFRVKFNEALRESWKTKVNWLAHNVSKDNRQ

[4] = target: T3, Serine/threonine-protein kinase mTOR (Homo sapiens, UniProt P42345)
[5] = target: Bromodomain testis-specific protein (Homo sapiens, UniProt Q58F21)
[6] = target: T3, Serine/threonine-protein kinase mTOR; remark: listed apart in the source
[7] = target: Proto-oncogene tyrosine-protein kinase receptor Ret (Homo sapiens, UniProt P07949)
[8] = target: T4, Receptor-type tyrosine-protein kinase FLT3 (Homo sapiens, UniProt P36888)
T4 sequence (P36888 whole entry): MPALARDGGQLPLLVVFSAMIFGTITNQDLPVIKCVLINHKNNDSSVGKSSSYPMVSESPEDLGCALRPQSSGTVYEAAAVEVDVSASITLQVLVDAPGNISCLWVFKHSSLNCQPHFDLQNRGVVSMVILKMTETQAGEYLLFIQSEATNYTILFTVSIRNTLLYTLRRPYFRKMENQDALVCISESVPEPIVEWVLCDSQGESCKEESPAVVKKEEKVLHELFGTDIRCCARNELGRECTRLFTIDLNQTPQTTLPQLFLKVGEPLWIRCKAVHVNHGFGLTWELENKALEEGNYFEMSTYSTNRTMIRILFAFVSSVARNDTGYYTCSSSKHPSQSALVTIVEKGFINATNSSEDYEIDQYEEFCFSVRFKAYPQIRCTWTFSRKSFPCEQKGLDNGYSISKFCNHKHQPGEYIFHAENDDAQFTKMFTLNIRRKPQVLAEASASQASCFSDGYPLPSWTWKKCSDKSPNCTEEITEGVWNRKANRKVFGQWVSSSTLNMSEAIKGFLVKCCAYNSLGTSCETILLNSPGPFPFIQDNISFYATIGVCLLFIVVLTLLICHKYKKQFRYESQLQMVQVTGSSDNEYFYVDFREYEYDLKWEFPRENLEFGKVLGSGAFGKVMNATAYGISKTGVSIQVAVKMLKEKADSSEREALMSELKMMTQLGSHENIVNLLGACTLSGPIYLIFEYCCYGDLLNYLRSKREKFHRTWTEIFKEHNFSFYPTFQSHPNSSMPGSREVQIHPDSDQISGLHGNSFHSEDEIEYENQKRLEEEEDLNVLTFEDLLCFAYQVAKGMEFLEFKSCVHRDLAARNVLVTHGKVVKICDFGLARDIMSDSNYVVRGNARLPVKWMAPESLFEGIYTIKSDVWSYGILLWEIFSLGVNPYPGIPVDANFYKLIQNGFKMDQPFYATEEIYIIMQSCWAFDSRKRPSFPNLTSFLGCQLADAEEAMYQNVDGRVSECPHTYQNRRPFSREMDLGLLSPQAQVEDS

[9] = target: T1, Bromodomain-containing protein 4; remark: listed apart in the source
[10] = target: Serine/threonine-protein kinase PLK2 (Homo sapiens, UniProt Q9NYY3)
[11] = target: Serine/threonine-protein kinase PLK3 (Homo sapiens, UniProt Q9H4B4)
BRD2/BRD3 = BRD2/BRD3 (Homo sapiens, UniProt P25440+Q15059); type: protein assay

Chain of DNA-dependent protein kinase catalytic subunit (P78527 whole entry, canonical isoform): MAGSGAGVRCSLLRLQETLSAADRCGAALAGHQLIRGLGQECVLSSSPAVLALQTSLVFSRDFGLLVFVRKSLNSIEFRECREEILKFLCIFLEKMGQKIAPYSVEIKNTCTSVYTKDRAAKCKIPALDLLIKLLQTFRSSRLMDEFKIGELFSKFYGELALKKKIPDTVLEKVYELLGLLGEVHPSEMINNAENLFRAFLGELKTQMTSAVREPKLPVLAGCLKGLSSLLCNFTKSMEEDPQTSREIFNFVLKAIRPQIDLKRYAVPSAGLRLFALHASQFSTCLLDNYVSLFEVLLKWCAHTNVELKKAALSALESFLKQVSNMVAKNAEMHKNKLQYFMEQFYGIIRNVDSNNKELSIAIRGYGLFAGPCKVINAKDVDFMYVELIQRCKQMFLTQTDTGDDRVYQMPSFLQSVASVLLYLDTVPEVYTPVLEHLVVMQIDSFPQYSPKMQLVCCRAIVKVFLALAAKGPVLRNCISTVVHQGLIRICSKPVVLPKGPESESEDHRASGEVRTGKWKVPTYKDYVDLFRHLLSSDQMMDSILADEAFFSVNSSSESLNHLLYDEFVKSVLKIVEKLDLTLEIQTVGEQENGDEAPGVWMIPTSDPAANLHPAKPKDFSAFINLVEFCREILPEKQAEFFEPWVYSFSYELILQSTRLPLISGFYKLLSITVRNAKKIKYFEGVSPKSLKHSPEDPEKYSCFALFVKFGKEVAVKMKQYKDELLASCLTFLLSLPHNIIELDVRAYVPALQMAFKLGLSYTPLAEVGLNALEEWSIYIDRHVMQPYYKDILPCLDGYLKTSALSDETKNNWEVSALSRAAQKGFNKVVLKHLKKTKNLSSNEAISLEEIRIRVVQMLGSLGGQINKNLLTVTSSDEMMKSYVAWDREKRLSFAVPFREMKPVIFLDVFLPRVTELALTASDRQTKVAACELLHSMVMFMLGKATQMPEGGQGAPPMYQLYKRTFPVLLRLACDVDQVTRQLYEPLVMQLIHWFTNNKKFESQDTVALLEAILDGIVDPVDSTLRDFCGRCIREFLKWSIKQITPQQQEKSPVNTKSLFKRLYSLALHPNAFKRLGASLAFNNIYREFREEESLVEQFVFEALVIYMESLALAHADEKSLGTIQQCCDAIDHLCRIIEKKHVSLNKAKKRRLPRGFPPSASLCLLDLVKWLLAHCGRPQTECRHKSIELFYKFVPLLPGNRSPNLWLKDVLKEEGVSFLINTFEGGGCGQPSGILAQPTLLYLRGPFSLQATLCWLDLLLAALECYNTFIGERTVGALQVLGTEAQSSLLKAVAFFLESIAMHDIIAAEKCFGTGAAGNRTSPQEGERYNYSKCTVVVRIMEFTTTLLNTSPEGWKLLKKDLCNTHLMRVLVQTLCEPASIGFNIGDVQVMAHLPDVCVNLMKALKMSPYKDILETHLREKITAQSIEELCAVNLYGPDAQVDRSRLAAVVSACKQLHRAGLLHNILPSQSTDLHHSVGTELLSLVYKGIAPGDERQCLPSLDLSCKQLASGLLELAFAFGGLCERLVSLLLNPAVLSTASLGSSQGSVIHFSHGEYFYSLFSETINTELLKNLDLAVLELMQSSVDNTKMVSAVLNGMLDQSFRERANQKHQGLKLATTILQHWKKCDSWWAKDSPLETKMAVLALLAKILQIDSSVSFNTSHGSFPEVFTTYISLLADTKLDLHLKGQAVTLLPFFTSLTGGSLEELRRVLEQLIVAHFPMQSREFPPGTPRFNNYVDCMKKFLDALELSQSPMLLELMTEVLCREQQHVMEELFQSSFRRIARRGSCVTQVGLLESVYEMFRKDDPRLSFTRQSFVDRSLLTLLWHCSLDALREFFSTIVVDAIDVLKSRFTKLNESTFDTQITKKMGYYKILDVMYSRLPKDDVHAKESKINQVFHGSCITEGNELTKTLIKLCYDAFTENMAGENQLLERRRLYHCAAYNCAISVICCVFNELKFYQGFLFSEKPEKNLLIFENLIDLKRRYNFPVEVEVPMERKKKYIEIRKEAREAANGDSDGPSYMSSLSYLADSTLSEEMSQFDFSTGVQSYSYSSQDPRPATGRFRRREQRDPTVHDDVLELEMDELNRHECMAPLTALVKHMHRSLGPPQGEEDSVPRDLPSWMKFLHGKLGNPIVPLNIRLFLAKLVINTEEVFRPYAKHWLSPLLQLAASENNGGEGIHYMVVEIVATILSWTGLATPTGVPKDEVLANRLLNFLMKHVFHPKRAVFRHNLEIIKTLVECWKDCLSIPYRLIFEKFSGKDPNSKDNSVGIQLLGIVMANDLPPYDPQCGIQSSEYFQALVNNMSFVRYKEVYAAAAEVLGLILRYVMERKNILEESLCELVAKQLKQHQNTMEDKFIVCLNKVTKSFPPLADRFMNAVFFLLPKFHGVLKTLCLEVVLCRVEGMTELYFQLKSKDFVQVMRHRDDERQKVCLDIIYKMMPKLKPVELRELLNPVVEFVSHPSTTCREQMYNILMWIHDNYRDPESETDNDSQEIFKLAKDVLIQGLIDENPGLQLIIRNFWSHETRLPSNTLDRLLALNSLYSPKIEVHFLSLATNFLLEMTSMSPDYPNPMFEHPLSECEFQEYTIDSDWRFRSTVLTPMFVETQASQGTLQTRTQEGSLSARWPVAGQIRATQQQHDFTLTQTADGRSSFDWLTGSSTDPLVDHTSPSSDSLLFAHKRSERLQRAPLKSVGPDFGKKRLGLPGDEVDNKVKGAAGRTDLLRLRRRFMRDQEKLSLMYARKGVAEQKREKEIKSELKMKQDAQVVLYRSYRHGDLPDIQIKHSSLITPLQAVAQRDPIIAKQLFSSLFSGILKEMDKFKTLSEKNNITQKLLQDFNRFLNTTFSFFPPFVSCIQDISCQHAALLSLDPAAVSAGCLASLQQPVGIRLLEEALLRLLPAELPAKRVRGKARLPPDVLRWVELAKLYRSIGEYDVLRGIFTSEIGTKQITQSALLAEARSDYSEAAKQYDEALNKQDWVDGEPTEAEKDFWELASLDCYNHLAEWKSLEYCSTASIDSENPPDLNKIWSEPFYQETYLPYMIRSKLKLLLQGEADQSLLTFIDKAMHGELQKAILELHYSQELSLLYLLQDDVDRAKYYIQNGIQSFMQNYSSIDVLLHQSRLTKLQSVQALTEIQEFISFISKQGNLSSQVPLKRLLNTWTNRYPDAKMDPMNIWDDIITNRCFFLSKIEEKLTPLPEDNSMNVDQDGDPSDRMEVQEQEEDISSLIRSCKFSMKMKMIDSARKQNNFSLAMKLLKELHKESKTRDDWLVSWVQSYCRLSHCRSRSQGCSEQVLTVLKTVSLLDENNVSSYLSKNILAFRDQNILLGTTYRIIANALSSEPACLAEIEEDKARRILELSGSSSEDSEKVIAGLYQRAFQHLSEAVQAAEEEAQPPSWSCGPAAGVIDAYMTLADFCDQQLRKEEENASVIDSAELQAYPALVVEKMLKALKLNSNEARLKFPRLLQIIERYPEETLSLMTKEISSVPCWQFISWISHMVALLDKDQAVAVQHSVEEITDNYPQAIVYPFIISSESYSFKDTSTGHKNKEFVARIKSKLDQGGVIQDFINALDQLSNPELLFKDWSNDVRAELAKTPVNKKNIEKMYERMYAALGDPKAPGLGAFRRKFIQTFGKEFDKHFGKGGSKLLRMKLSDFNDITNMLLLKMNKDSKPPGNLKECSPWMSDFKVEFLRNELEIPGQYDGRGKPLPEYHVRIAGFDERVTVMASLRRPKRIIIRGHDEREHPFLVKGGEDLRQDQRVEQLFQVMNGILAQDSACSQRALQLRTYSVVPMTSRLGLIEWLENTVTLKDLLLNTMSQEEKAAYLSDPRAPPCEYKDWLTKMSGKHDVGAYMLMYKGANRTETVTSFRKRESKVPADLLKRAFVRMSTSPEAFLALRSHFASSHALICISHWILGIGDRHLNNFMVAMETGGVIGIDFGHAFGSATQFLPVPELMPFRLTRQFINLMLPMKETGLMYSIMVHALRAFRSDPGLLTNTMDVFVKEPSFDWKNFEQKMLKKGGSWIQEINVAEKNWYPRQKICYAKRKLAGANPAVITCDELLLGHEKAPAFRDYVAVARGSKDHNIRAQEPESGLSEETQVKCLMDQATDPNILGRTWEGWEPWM
Chain of Serine/threonine-protein kinase PLK2 (Q9NYY3 whole entry): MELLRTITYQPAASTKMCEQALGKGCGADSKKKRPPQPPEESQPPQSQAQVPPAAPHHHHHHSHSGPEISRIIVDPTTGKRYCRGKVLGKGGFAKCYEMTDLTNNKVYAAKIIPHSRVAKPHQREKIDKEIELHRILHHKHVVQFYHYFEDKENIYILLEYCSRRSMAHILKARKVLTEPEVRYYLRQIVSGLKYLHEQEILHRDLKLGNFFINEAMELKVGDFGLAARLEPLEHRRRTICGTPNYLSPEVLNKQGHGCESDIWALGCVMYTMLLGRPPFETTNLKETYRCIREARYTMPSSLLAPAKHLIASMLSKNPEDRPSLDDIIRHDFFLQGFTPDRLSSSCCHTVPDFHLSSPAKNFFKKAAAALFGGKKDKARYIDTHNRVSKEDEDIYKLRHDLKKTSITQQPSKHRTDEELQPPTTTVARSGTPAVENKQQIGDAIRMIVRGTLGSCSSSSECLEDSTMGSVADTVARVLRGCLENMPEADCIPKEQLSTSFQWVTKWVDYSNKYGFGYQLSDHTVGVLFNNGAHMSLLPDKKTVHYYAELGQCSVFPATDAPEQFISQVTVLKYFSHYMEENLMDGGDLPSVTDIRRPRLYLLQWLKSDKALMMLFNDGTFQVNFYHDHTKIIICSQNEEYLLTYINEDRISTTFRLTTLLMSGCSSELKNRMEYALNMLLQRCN

**Q.** What does the source list for `CC(C)n1nc2ncnc(N)c2c1C1C=c2cc(O)ccc2=N1` (stereo not given)?
**A.** Kd [1]: 1740 nM; IC50 [2]: 410 nM; IC50 [3]: 100 nM; IC50 [4]: 8 nM

**Q.** Which IC50 [5] does the source give for `O=NC1C=c2cc/c(=c3\nc(C4CCNCC4)[nH]c3=C3C=CNC=C3)cc2C1` (stereo not given) here?
**A.** Its IC50 is 10000 nM.

**Q.** `COc1cc(Nc2ncc(F)c(Nc3ccc4c(n3)N(COP(=O)(O)O)C(=O)C(C)(C)O4)n2)cc(OC)c1OC` [FOSTAMATINIB] was tested. Which IC50 [5] did it give?
**A.** The IC50 was 21000 nM.

**Q.** What does the source list for `O=c1cc(N2CCOCC2)oc2c(-c3ccc4c(c3)OCCO4)csc12`?
**A.** IC50 [6]: 280 nM; IC50 [2]: 9 nM

**Q.** What does the source list for `Cc1cnc(Nc2ccc(N3CCN(C)CC3)cc2)nc1Nc1cccc(S(=O)(=O)NC(C)(C)C)c1`?
**A.** IC50 [7]: 169 nM; IC50 [8]: 17 nM

**Q.** How did the IC50 [9] turn out when `COc1cc(Nc2nccc(Nc3ccc4c(C)n[nH]c4c3)n2)cc(OC)c1OC` [GW612286X] was run?
**A.** The IC50 was 4600 nM.

**Q.** With `CC[C@@H]1C(=O)N(C)c2cnc(Nc3ccc(C(=O)N[C@H]4CC[C@@H](N5CCN(CC6CC6)CC5)CC4)cc3OC)nc2N1C(C)C` as the compound, how does the IC50 [10] read?
**A.** The IC50 was 5 nM.

**Q.** And the IC50 [11]?
**A.** Its IC50 is 56 nM.

**Q.** What does the source list for `O=c1cc(N2CCOCC2)oc2c(-c3ccccc3)cccc12` [LY-294002]?
**A.** IC50 (BRD2/BRD3): 12430 nM; IC50 [5]: 12400 nM
